According to patent US6844347B1, “Substituted 4-amino-2aryl-pyrimidines, their production and use and pharmaceutical preparations containing same” (Aventis Pharma Deutschland GmbH, priority 1998, dated 2005):

Target: T1, soluble guanylate cyclase (sGC) (Bos taurus, UniProt P16068+P19687)
T1 construct: The sGC employed had been isolated from bovine lung; from tissue; host or cells: bovine lung
T1 sequence (P19687 1-691): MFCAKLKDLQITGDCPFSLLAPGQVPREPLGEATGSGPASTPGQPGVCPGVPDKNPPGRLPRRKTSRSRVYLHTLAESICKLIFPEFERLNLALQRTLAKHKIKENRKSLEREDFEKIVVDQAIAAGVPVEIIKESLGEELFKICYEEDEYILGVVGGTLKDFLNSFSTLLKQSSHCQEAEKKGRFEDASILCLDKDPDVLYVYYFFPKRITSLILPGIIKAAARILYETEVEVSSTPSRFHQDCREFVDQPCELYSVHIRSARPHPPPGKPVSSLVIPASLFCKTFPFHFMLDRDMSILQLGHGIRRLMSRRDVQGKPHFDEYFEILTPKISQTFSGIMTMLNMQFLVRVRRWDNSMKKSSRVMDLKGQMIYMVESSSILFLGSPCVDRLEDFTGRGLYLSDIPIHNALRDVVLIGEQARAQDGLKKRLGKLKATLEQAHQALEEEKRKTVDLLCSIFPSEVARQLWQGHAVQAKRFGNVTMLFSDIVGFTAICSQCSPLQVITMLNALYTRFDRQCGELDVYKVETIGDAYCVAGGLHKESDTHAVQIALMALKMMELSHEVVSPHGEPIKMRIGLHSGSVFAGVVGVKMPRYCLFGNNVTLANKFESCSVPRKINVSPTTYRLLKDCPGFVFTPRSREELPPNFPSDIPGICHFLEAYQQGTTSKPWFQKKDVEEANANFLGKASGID
T1 sequence (P16068 1-619): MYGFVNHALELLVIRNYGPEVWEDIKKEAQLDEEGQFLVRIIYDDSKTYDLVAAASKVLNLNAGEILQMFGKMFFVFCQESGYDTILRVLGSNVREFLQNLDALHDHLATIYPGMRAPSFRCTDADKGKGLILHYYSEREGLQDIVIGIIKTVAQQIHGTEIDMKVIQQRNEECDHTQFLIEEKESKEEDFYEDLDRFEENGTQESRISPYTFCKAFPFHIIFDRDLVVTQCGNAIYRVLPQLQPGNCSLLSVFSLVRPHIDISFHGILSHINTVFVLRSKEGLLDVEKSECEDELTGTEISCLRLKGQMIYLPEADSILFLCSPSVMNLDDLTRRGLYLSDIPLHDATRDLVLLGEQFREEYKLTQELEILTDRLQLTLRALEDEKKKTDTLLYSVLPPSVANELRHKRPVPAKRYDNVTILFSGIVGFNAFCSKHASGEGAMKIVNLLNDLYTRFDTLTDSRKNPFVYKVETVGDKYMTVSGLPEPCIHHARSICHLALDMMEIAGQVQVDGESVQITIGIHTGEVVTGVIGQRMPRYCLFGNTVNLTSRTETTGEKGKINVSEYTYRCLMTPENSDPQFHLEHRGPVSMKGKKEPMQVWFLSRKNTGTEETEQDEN
Test: Activation of soluble guanylate cyclase (cGMP enzyme immunoassay)
Type: biochemical
Conditions: test substance 50 μM; sGC isolated from bovine lung; [cGMP]test substance/[cGMP]control (basal activity with solvent); 37° C., 15 to 20 minutes
Method: The activation of soluble guanylate cyclase (sGC), which catalyzes the conversion of guanosine triphosphate (GTP) to cyclic guanosine monophosphate (cGMP) and pyrophosphate, by the compounds according to the invention was quantified with the aid of an enzyme immunoassay (EIA) from Amersham. For this, the test substances were first incubated with sGC in microtiter plates and then the quantity of the resulting cGMP was determined.
The sGC employed had been isolated from bovine lung (see Methods in Enzymology, Volume 195, p. 377). The test solutions (100 μl per well) contained 50 mM triethanolamine (TEA) buffer (pH 7.5), 3 mM MgCl2, 3 mM reduced glutathione (GSH), 0.1 mM GTP, 1 mM 3-isobutyl-1-methylxanthine (IBMX), suitably diluted enzyme solution and the test substance or, in the control experiments, solvent. The test substances were dissolved in dimethyl sulfoxide (DMSO) and the solution was diluted with DMSO/water such that the final concentration c of test substance in the test batch was 50 μM. The DMSO concentration in the test batch was 5% (v/v). The reaction was started by addition of the sGC. The reaction mix was incubated at 37° C. for 15 to 20 minutes and then stopped by ice-cooling and addition of the stop reagent (50 mM EDTA, pH 8.0). An aliquot of 50 μl was taken and employed for the determination of the cGMP content using the acetylation protocol of the Amersham cGMP EIA kit. The absorption of the samples was measured at 450 nm (reference wavelength 620 nm) in a microtiter plate reading apparatus. The cGMP concentration was determined by means of a calibration curve, which was obtained under the same experimental conditions. The activation of the sGC by a test substance is indicated as n-fold stimulation of the basal enzyme activity which was found in the control experiments (with solvent instead of test substance) (calculated according to the formula n-fold stimulation=[cGMP]test substance/[cGMP]control).

n-fold stimulation at c = 50 μM [n-fold] | Structure (SMILES)
>8 | COCCCNc1cc(C(C)C)nc(-c2ccc(C)cc2)n1 [Example 23]
>16 | CCN(CC)c1cc(C(C)C)nc(-c2ccc(Cl)cc2)n1 [Example 33]
>4 | CCCCN(CCCC)c1cc(C(C)C)nc(-c2ccc(Cl)cc2)n1.Cl [Example 34]
>16 | CCCN(CCC)c1cc(C(C)C)nc(-c2ccc(Cl)cc2)n1.Cl [Example 35]
>8 | C=CCN(CC=C)c1cc(C(C)C)nc(-c2ccc(Cl)cc2)n1 [Example 36]
>4 | CCN(Cc1ccccc1)c1cc(C(C)C)nc(-c2ccc(Cl)cc2)n1 [Example 43]
>16 | CCCN(CCC)c1cc(C(C)C)nc(-c2cc(Cl)cc(Cl)c2)n1 [Example 84]
>16 | CCCN(CCC)c1cc(C(C)C)nc(-c2ccc(C)cc2)n1 [Example 85]
>16 | CCN(CC)c1cc(C(C)C)nc(-c2ccc(C)cc2)n1.Cl [Example 86]
>8 | CCCCNc1cc(C(C)C)nc(-c2ccc(C)cc2)n1 [Example 88]
>8 | Cc1ccc(-c2nc(C(C)C)cc(N3CCOCC3)n2)cc1 [Example 89]
>16 | Cc1ccc(-c2nc(C(C)C)cc(N3CCSCC3)n2)cc1 [Example 90]
>16 | Cc1ccc(-c2nc(C(C)C)cc(N3C[C@@H](C)O[C@@H](C)C3)n2)cc1 [Example 97]
>8 | COCCN(CCOC)c1cc(C(C)C)nc(-c2ccc(C)cc2)n1 [Example 98]

The next lines start with the compound.

Structure (SMILES) | n-fold stimulation at c = 50 μM [n-fold]
Cc1ccc(-c2nc(NC3CCC(O)CC3)cc(C(C)C)n2)cc1 (stereo not drawn) [Example 25] | 28
CC(C)c1cc(N2CCCC2)nc(-c2ccc(Cl)cc2)n1.Cl [Example 29] | >4
CC(C)c1cc(N2CCSCC2)nc(-c2ccc(Cl)cc2)n1.Cl [Example 30] | >4
CCCCNc1cc(C(C)C)nc(-c2ccc(Cl)cc2)n1 [Example 32] | >4
CC(C)c1cc(N2CCCCCC2)nc(-c2ccc(Cl)cc2)n1 [Example 38] | >8
CC(C)c1cc(N2CCC(C(N)=O)CC2)nc(-c2ccc(Cl)cc2)n1 [Example 44] | >4
CC(C)c1cc(N2CCSC2)nc(-c2ccc(Cl)cc2)n1 [Example 45] | >4
CC(C)(C)c1cc(N2CCOCC2)nc(-c2ccc(Cl)cc2)n1 [Example 52] | >8
CCN(CC)c1cc(-c2ccccc2)nc(-c2ccc(Cl)cc2)n1 [Example 63] | >4
CC(C)(C)c1cc(N2CCSCC2)nc(-c2ccc(Cl)cc2)n1 [Example 66] | >4
CCCN(CCC)c1cc(-c2ccccc2)nc(-c2ccc(Cl)cc2)n1 [Example 69] | >4
CC(C)c1cc(NC2CCC(O)CC2)nc(-c2cc(Cl)cc(Cl)c2)n1 (stereo not drawn) [Example 77] | 30
CCCCNc1cc(C(C)C)nc(-c2cc(Cl)cc(Cl)c2)n1.Cl [Example 79] | >4
CCN(CC)c1cc(C(C)C)nc(-c2cc(Cl)cc(Cl)c2)n1 [Example 80] | >16
CC(C)c1cc(N2CCOCC2)nc(-c2cc(Cl)cc(Cl)c2)n1 [Example 81] | >4
CC(C)c1cc(N2CCSCC2)nc(-c2cc(Cl)cc(Cl)c2)n1 [Example 82] | >4
Cc1ccc(-c2nc(C(C)C)cc(N3CCC(C(N)=O)CC3)n2)cc1 [Example 99] | >4
Cc1ccc(-c2nc(C(C)C)cc(N3CCCCCC3)n2)cc1 [Example 100] | >8
Clc1ccc(-c2nc(-c3ccccc3)cc(N3CCCCCC3)n2)cc1 [Example 112] | >8
CC(C)c1cc(NC2CCCC2)nc(-c2ccc(Cl)cc2)n1 [Example 124] | >16
CC(C)c1cc(N[C@H]2CC[C@H](O)CC2)nc(-c2ccc(Cl)cc2)n1 [Example 125] | 32
CC(C)(C)c1cc(N[C@H]2CC[C@H](O)CC2)nc(-c2ccc(Cl)cc2)n1 [Example 133] | >16
CC(C)c1cc(NCCCCO)nc(-c2ccc(Cl)cc2)n1 [Example 137] | >16

Tested on: not given
Test: not given
Conditions: not given

melting point [°C] | Structure (SMILES)
226 | CC(C)c1cc(N2CCS(=O)(=O)CC2)nc(-c2ccc(Cl)cc2)n1 [Example 145, 2-(4-Chlorophenyl)-6-isopropyl-4-(1,1-dioxothiomorpholino)pyrimidine]
128 | CC(C)c1cc([SH]2(=O)CCNC2)nc(-c2ccc(Cl)cc2)n1 [Example 146, 2-(4-Chlorophenyl)6-isopropyl-4-(1-oxo-1,3-thiazolidin-1-yl)pyrimidine]
103 | CC[S+]([O-])CCNc1cc(C(C)C)nc(-c2ccc(Cl)cc2)n1 (stereo not drawn) [Example 147, 2-(4-Chlorophenyl)-4-((2-ethylsulfinylethyl)amino)-6-isopropylpyrimidine]
152 | Cc1ccc(-c2nc(C(C)C)cc(N3CC[S+]([O-])CC3)n2)cc1 [Example 148, 6-Isopropyl-2-(4-methylphenyl)-4-(1-oxothiomorpholino)pyrimidine]
187 | CC(C)c1cc(N2CC[S+]([O-])CC2)nc(-c2cc(Cl)cc(Cl)c2)n1 [Example 149, 2-(3,5-dichlorophenyl)-6-isopropyl-4-(1-oxothiomorpholino)pyrimidine]
